SMILES strings stand for the structures.

The assay deals with Wistar male rats subjected to ketosis under starvation for 48 hours. The assay can be described thus: Effects at oral administration in rats subjected to ketosis under starvation. In kind it is in vivo, rat. Conditions: oral (into the stomach), 1 or 2 mmol/kg-body weight, blood from tail vein up to 240 minutes after administration. On the procedure: Wistar male rats of 6 to 8 week age were subjected to ketosis under starvation for 48 hours and then used for experiment. Each of glutamine, glutamic acid, valine, isoleucine and serine was dissolved in water for injection and administered into the stomach using a gastroconductor to give a dose of 1 or 2 mmol/kg-body weight. As controls, the same quantity of water for injection was similarly administered, or each of glucose and alanine was similarly administered to give a dose of 1 or 2 mmol/kg-body weight.
Before the administration, and 30, 60, 90, 120, 180 and 240 minutes after the administration, blood was collected from a tail vein and the concentration of glucose in blood and the concentration of 3-hydroxybutyric acid usually measured for diagnosis of ketosis were measured.
FIGS. 1 to 10 show changes of the concentrations of glucose and 3-hydroxybutyric acid in blood, which are expressed as rates of change from the values before the administration (FIG. 1: water for injection, FIG. 2: 1 mmol/kg of glucose, FIG. 3: 1 mmol/kg of alanine, FIG. 4: 2 mmol/kg of alanine, FIG. 5: 1 mmol/kg of glutamine, FIG. 6: 1 mmol/kg of glutamic acid, FIG. 7: 1 mmol/kg of valine, FIG. 8: 2 mmol/kg of valine, FIG. 9: 2 mmol/kg of isoleucine, FIG. 10: 2 mmol/kg of serine). In the figures, the symbols “-∘-” and “-▴-” correspond to the rates of change of 3-hydroxybutyric acid and glucose, respectively.
Furthermore, as shown in the figures, the effect on reduction of ketone bodies disappeared within about 4 hours when glucose was used. On the other hand, when glutamine, glutamic acid, valine or isoleucine was used, the period of effecting the reduction of the concentration of ketone bodies was expected to be 24 hours or more, and therefore, they were effective as ketosis-treating agents having long duration of the effect.
Turning to `CC[C@H](C)[C@H](N)C(=O)O` [isoleucine], the “concentration of glucose in blood, change from value before administration” value is on record as “without largely increasing the concentration of glucose in blood” and the “concentration of ketone bodies (3-hydroxybutyric acid) in blood, change from value before administration” value was “reduced the concentration of ketone bodies”.

In the case of `N[C@@H](CO)C(=O)O` [serine], the “concentration of glucose in blood, change from value before administration” value is listed as “without largely increasing the concentration of glucose in blood” and the “concentration of ketone bodies (3-hydroxybutyric acid) in blood, change from value before administration” value is “reduced the concentration of ketone bodies”.

For `CC(C)[C@H](N)C(=O)O` [valine], the “concentration of glucose in blood, change from value before administration” value is reported as “without largely increasing the concentration of glucose in blood” and the “concentration of ketone bodies (3-hydroxybutyric acid) in blood, change from value before administration” value is given as “reduced the concentration of ketone bodies”.

Values taken from patent publication US6620967B1, “Ketosis-treating agent” (priority 1999, dated 2003).
